{"source": "paper PMC7855449", "about": "(European journal of medicinal chemistry, 2020)", "key": {"[1]": {"conditions": "reported for 1a at 10 mg/kg, oral; cited from earlier work"}, "[2]": {"assay": "Pharmacokinetic studies in mice", "format": "in vivo, female CD-1 mice", "conditions": "i.p. exposure corrected for PPB"}, "[3]": {"tested_on": "patient-derived HGSOC tumor spheroids", "assay": "Patient derived spheroid assay with Taxol", "format": "cell-based"}}, "data": [{"smiles": "CS(=O)(=O)N1CCN(C(=O)c2cnc3ccc(F)cc3c2-c2ccc(C3(C#N)CC3)cc2)CC1", "note": "[Compound 1a]", "values": [{"measurement": "AUC0-∞", "setting": "[1]", "value": 14.6, "unit": "µM·h"}]}, {"smiles": "CC(Sc1nc2nn(C3COC3)cc2c(=O)n1-c1ccccc1)c1ccccc1", "note": "(centres unmarked) [Compound 68, 2-(oxetan-3-yl)-5-phenyl-6-((1-phenylethyl)thio)-2H-pyrazolo[3,4-d]pyrimidin-4(5H)-one]", "values": [{"measurement": "unbound drug AUC0-7h obs", "setting": "[2]", "value": 0.6, "unit": "µM·h"}]}, {"smiles": "CC(Sc1nc2nn(C3COC3)cc2c(=O)n1-c1ccccc1)c1ccccn1", "note": "(centres unmarked) [Compound 69, 2-(oxetan-3-yl)-5-phenyl-6-((1-(pyridin-2-yl)ethyl)thio)-2H-pyrazolo[3,4-d]pyrimidin-4(5H)-one]", "values": [{"measurement": "unbound drug AUC0-7h obs", "setting": "[2]", "value": 1.1, "unit": "µM·h"}, {"measurement": "single agent toxicity", "setting": "[3]", "value": "no single agent toxicity"}]}, {"smiles": "CC(Sc1nc2nn(C3(C)COC3)cc2c(=O)n1-c1ccccc1)c1ccccc1", "note": "(centres unmarked) [Compound 74, 2-(3-methyloxetan-3-yl)-5-phenyl-6-((1-phenylethyl)thio)-2H-pyrazolo[3,4-d]pyrimidin-4(5H)-one]", "values": [{"measurement": "unbound drug AUC0-7h obs", "setting": "[2]", "value": 0.5, "unit": "µM·h"}]}]}
